The source of these data is patent US9827229B2, “Small molecule securinine and norsecurinine analogs and their use in cancers, inflammatory diseases and infections” (INVENIO THERAPEUTICS INC., priority 2013, dated 2017).

The structures appear in SMILES notation. Counter-ions that a name gives are not always drawn. Like-named read-outs stand apart in the source and are kept apart here.

The experiment has as its system HL60 cells. Description: Growth of HL60 cells (IC50). It counts as cell-based, human. How it is done:
The analogs were then tested and evaluated on the ability to affect differentiation and growth of HL60 cells.

The mark [1] stands for this setting: Homo sapiens, HL-60, HL-60 cells, growth, no unit in head or cell (other cells of the column print uM), read-out: HL-60, IC50.
[2] abbreviates: Homo sapiens, HL-60, read-out: HL-60, IC50, HL-60 cells, growth, no unit in head or cell (other cells of the column print uM).
Setting [3] is: read-out: HL-60, IC50, HL-60 cells, growth, no unit in head or cell (other cells of the column print uM).
[4] abbreviates: Homo sapiens, HL-60, read-out: HL-60, IC50, HL-60 cells, growth.

Usually IC50 stands for the concentration at which inhibition is half-maximal. For the compound `O=C1C=C2C(C#Cc3ccc[n+]([O-])c3)=CC3CC2(O1)C1CCCCN31` (centres unmarked) [INV-SZ-113-2], the IC50 under setting [1] lay in the range of 0.15 to 0.31 µM.
Same read-out and setting: the figure for `COC(OC)C1CCC2N1C1C=C(C#Cc3cccnc3)C3=CC(=O)OC32C1` (centres unmarked) [INV-SZ-114-1] is 0.07 to 0.15 µM.
The same measure, in the same setting: the figure for `COC(OC)C1CCC2N1C1C=C(C#Cc3ccc[n+]([O-])c3)C3=CC(=O)OC32C1` (centres unmarked) [INV-SZ-115-1] is 0.15 to 0.31 µM.
The same measure, in the same setting: the figure for `O=C1C=C2C(C#Cc3cccc[n+]3[O-])=CC3CC2(O1)C1CCCCN31` (centres unmarked) [INV-SZ-116-1] is 2.5 to 5 µM; for `COC(OC)C1CCC2N1C1C=C(C#Cc3ccc(N(C)C)cc3)C3=CC(=O)OC32C1` (centres unmarked) [INV-SZ-117-3] it is 0.03 to 0.07 µM.
As to `O=C1C=C2C=CC3CC2(O1)C1=C(Br)CCCN13` (centres unmarked) [INV-SZ-118-2], the IC50 under setting [2] was in the range of 0.31 to 0.62 µM.
For `O=C1C=C2C(C#Cc3ccc(CO)cc3)=CC3CC2(O1)C1CCCCN31` (centres unmarked) [INV-SZ-120-1], under setting [1], the IC50 was in the range of 0.07 to 0.15 µM.
On the same count and under the same terms, the figure for `COC(OC)C1CCC2N1C1C=C(C#Cc3ccccc3)C3=CC(=O)OC32C1` (centres unmarked) [INV-SZ-123-2] is 0.37 to 0.75 µM; for `O=C1C=C2C3C=CCC2(O1)C1CCCCN1O3` (centres unmarked) [INV-SZ-125-1] it is less than 5 µM.
Still for that read-out and setting: then `O=C1C=C2C=CC3CC2(O1)C1CCCCN1O3` (centres unmarked) [INV-SZ-125-2], with less than 5 µM; and `O=C1C=C2C3C=CCC2(O1)C1CCC=CN1O3` (centres unmarked) [INV-SZ-125-3], with less than 5 µM.
As to `CNCC#CC1=CC2CC3(OC(=O)C=C13)C1CCCCN21` (centres unmarked) [INV-SZ-129-1], the IC50 under setting [1] is 2.5 to 5 µM.
Still for that read-out and setting: then `O=CC1CCC2N1C1C=CC3=CC(=O)OC32C1` (centres unmarked) [INV-SZ-132-1], with 1.25 to 2.5 µM; and `O=C1C=C2C=CC3CC2(O1)C1CCC(CO)N31` (centres unmarked) [INV-SZ-132-2], with 0.3 to 0.6 µM.
The same measure, in the same setting: the figure for `O=C1C=C2C(C#CCO)=CC3CC2(O1)C1CCCCN31` (centres unmarked) [INV-SZ-133-1] is 1.25 to 2.5 µM; for `COC(OC)C1CCC2N1C1C=C(C#CCO)C3=CC(=O)OC32C1` (centres unmarked) [INV-SZ-136-1] it is 0.15 to 0.31 µM.
Same read-out and setting: the figure for `CS(=O)(=O)NCC#CC1=CC2CC3(OC(=O)C=C13)C1CCCCN21` (centres unmarked) [INV-SZ-137-1] is 0.07 to 0.15 µM.
As to `O=C1C=C2C(I)=CC3CC2(O1)C1CCC(CO)N31` (centres unmarked) [INV-SZ-140-1], under setting [1], the IC50 lay within 0.07 to 0.15 µM.
The same measure, in the same setting: the figure for `COC(OC)C1CCC2N1C1C=C(C#CCNC(=O)CCl)C3=CC(=O)OC32C1` (centres unmarked) [INV-SZ-141-1] is 1.25 to 2.5 µM.
Turning to `O=C1C=C2C(I)=C[C@@H]3C[C@@]2(O1)[C@H]1CCCCN31` [INVS-MG-82 = 12A HCl salt], the IC50 under setting [3] is greater than 2.5 µM.
Same read-out and setting: the figure for `O=C1C=C2C(I)=C[C@@H]3C[C@@]2(O1)[C@H]1CCCCN31` [INVS-MG-84] is greater than 2.5 µM.
With `COC(OC)[C@H]1CC[C@H]2N1[C@@H]1C=C(I)C3=CC(=O)O[C@@]32C1` [INVS-MG-99-IVB-I], under setting [2], the IC50 is 0.31 to 0.625 µM.
As for `COC(OC)[C@H]1CC[C@H]2N1[C@@H]1C=CC3=CC(=O)O[C@@]32C1` [INVS-MG-99-IVD-I], the IC50 (read-out: HL-60, IC50, HL-60 cells, growth) is greater than 5 µM.
On to `COC(OC)[C@H]1CC[C@H]2N1[C@@H]1C=CC3=CC(=O)O[C@@]32C1` [INVS-MG-99-IVD], for which, under setting [4], the IC50 was less than 5 µM.
Take `COC(OC)[C@H]1CC[C@H]2N1[C@@H]1C=C(I)C3=CC(=O)O[C@@]32C1` [INVS-MG-99B = 52B]: under setting [2], the 50% inhibitory concentration (IC50) fell in the range of 0.156 to 0.31 µM.
Still for that read-out and setting: the figure for `COC(OC)[C@H]1CC[C@H]2N1[C@@H]1C=CC3=CC(=O)O[C@@]32C1` [INVS-MG-99D = 52D] is 0.31 to 0.625 µM.
As for `O=C1C=C2C(C#CCc3ccccc3)=C[C@@H]3C[C@@]2(O1)[C@H]1CCCCN31` [INVS-MG-108-IIB], under setting [1], the concentration for half-maximal inhibition (IC50) fell in the range of 0.31 to 0.625 µM.
For the compound `CCCCCCCCC#CC1=C[C@@H]2C[C@@]3(OC(=O)C=C13)[C@H]1CCCCN21` [INVS-MG-118-IIB], the IC50 under setting [1] lay within 2.5 to 5 µM.
Still for that read-out and setting: the figure for `O=C1C=C2C(C#CCCCCl)=C[C@@H]3C[C@@]2(O1)[C@H]1CCCCN31` [INVS-MG-119A] is 0.625 to 1.25 µM.
The same measure, in the same setting: the figure for `O=C1C=C2C(/C=C(\C#CCCCCl)CCCCl)=C[C@@H]3C[C@@]2(O1)[C@H]1CCCCN31` [INVS-MG-119B] is 1.25 to 2.5 µM; for `O=C1C=C2C(C#Cc3cccnc3)=C[C@@H]3C[C@@]2(O1)[C@H]1CCCCN31` [INVS-MG-144B] it is 0.31 to 0.625 µM.
With `CCN(CC)CC#CC1=C[C@@H]2C[C@@]3(OC(=O)C=C13)[C@H]1CCCCN21` [INVS-MG-145-V], the concentration for half-maximal inhibition (IC50) under setting [2] was in the range of 0.07 to 0.156 µM.
The same measure, in the same setting: the figure for `CN(C)c1ccc(C#CC2=C[C@@H]3C[C@@]4(OC(=O)C=C24)[C@H]2CCCCN32)cc1` [INVS-MG-146-IV] is 0.07 to 0.156 µM.
Consider `O=C1C=C2C(C#CCSc3ccccc3)=C[C@@H]3C[C@@]2(O1)[C@H]1CCCCN31` [INVS-MG-147B], for which the IC50 under setting [1] fell in the range of 0.625 to 1.25 µM.
On the same count and under the same terms, the figure for `O=C1C=C2C(/C=C(\C#Cc3cc(C(F)(F)F)cc(C(F)(F)F)c3)c3cc(C(F)(F)F)cc(C(F)(F)F)c3)=C[C@@H]3C[C@@]2(O1)[C@H]1CCCCN31` [INVS-MG-149B] is 1.25 to 2.5 µM; for `O=C1C=C2C(C#Cc3cc(C(F)(F)F)cc(C(F)(F)F)c3)=C[C@@H]3C[C@@]2(O1)[C@H]1CCCCN31` [INVS-MG-149B′] it is 1.25 to 2.5 µM.
On to `CCCN(CC#CC1=C[C@@H]2C[C@@]3(OC(=O)C=C13)[C@H]1CCCCN21)CCC` [INVS-MG-152-III], for which the IC50 (HL-60 cells, growth, no unit in head or cell (other cells of the column print uM), read-out: HL-60, IC50) was less than 0.03 µM.
`COc1ccc2cc(C#CC3=C[C@@H]4C[C@@]5(OC(=O)C=C35)[C@H]3CCCCN43)ccc2c1` [INVS-MG-157-III]: the IC50 under setting [1] was 0.07 to 0.156 µM.
As for `O=C1C=C2C(C#Cc3cc4ccccc4c4ccccc34)=C[C@@H]3C[C@@]2(O1)[C@H]1CCCCN31` [INVS-MG-158-VI], under setting [2], the IC50 was in the range of 0.156 to 0.31 µM.
On to `O=C1C=C2C(C#Cc3cc4ccccc4c4ccccc34)=C[C@@H]3C[C@@]2(O1)[C@H]1CCCCN31` [INVS-MG-158-V], for which the IC50 under setting [3] is less than 5 µM.
As to `CCCCC1C(/C=C/c2ccc(OC)cc2)C2=CC(=O)O[C@@]23C[C@@H]1N1CCCC[C@@H]13` (some centres unmarked) [INVS-MG-163-IIB], under setting [1], the 50% inhibitory concentration (IC50) was less than 10 µM.
Same read-out and setting: the figure for `O=C1C=C2C(C#Cc3ccc(-c4ccccc4)cc3)=C[C@@H]3C[C@@]2(O1)[C@H]1CCCCN31` [INVS-MG-169-III] is 0.07 to 0.156 µM; for `O=C1C=C2C(C#Cc3ccc([N+](=O)[O-])cc3)=C[C@@H]3C[C@@]2(O1)[C@H]1CCCCN31` [INVS-MG-176B] it is 0.31 to 0.625 µM.
On the same count and under the same terms, the figure for `CCCCN(CC#CC1=C[C@@H]2C[C@@]3(OC(=O)C=C13)[C@H]1CCCCN21)CCCC` [INVS-MG-179B] is 0.156 to 0.31 µM; for `[N-]=[N+]=Nc1ccc(C#CC2=C[C@@H]3C[C@@]4(OC(=O)C=C24)[C@H]2CCCCN32)cc1` [INVS-MG-193-III] it is 0.156 to 0.31 µM.
On to `C[Si](C)(C)C#CC1=C[C@@H]2C[C@@]3(OC(=O)C=C13)[C@H]1CCCCN21` [INVS-MG-207-IIIA], for which the IC50 under setting [2] lay in the range of 1.25 to 2.5 µM.
As for `C#CC1=C[C@@H]2C[C@@]3(OC(=O)C=C13)[C@H]1CCCCN21` [INVS-MG-207A], the IC50 under setting [1] was in the range of 0.07 to 0.156 µM.
Consider `COC(OC)[C@H]1CC[C@H]2N1[C@@H]1C=C(C#Cc3ccc(N)cc3)C3=CC(=O)O[C@@]32C1` [INVS-MG-219A], for which the IC50 under setting [1] lay in the range of 0.625 to 1.25 µM.
Consider `COC(OC)[C@H]1CC[C@H]2N1[C@@H]1C=C(C#Cc3cc4ccccc4c4ccccc34)C3=CC(=O)O[C@@]32C1` [INVS-MG-220B], for which the IC50 under setting [2] came out at 0.156 µM.
For `COC(OC)[C@@H]1CC[C@H]2N1[C@@H]1C=C(C#Cc3cc4ccccc4c4ccccc34)C3=CC(=O)O[C@@]32C1` [INVS-MG-220C], the IC50 under setting [4] was greater than 5 µM.
